According to ChEMBL document CHEMBL1127385, “Synthesis and diuretic activity of alkyl- and arylguanidine analogs of N,N'-dicyclohexyl-4-morpholinecarboxamidine in rats and dogs” (J Med Chem, 1994):
One block for each compound: values may come before it.

Legend:
[1] = system: Rattus norvegicus; assay: Ratio of Total electrolytic excretion of sodium and potassium in urine of rats after peroral administration of 282 uM/Kg of drug; assay type: ADME, organism-based; conditions: in vivo, po
[2] = system: Rattus norvegicus; assay: Total electrolytic excretion of sodium in urine of rats after peroral administration of 84.5 uM/Kg of drug; assay type: ADME, organism-based; conditions: in vivo, po
[3] = system: Rattus norvegicus; assay: Total electrolytic excretion of potassium in urine of rats after peroral administration of 28.2 uM/Kg of drug; assay type: ADME, organism-based; conditions: in vivo, po
[4] = system: Rattus norvegicus; assay: Tested for the diuretic activity by measuring the urinary volume after peroral administering 282 uM/Kg of drug in rats; assay type: ADME, organism-based, Urine; conditions: in vivo, po
[5] = system: Rattus norvegicus; assay: Total electrolytic excretion of potassium in urine of rats after peroral administration of 84.5 uM/Kg of drug; assay type: ADME, organism-based; conditions: in vivo, po
[6] = system: Rattus norvegicus; assay: Total electrolytic excretion of chlorine in urine of rats after peroral administration of 282 uM/Kg of drug; assay type: ADME, organism-based; conditions: in vivo, po
[7] = system: Rattus norvegicus; assay: Total electrolytic excretion of sodium in urine of rats after peroral administration of 282 uM/Kg of drug; assay type: ADME, organism-based; conditions: in vivo, po
[8] = system: Rattus norvegicus; assay: Total electrolytic excretion of chlorine in urine of rats after peroral administration of 28.2 uM/Kg of drug; assay type: ADME, organism-based; conditions: in vivo, po
[9] = system: Rattus norvegicus; assay: Total electrolytic excretion of potassium in urine of rats after peroral administration of 282 uM/Kg of drug; assay type: ADME, organism-based; conditions: in vivo, po
[10] = system: Rattus norvegicus; assay: Total electrolytic excretion of sodium in urine of rats after peroral administration of 28.2 uM/Kg of drug; assay type: ADME, organism-based; conditions: in vivo, po
[11] = system: Rattus norvegicus; assay: Total electrolytic excretion of chlorine in urine of rats after peroral administration of 84.5 uM/Kg of drug; assay type: ADME, organism-based; conditions: in vivo, po
[12] = system: Rattus norvegicus; assay: Tested for the diuretic activity by measuring the urinary volume after peroral administering 28.2 uM/Kg of drug in rats; assay type: ADME, organism-based, Urine; conditions: in vivo, po
[13] = system: Rattus norvegicus; assay: Ratio of Total electrolytic excretion of sodium and potassium in urine of rats after peroral administration of 28.2 uM/Kg of drug; assay type: ADME, organism-based; conditions: in vivo, po
[14] = system: Rattus norvegicus; assay: Tested for the diuretic activity by measuring the urinary volume after peroral administering 84.5 uM/Kg of drug in rats; assay type: ADME, organism-based, Urine; conditions: in vivo, po
[15] = system: Rattus norvegicus; assay: Ratio of Total electrolytic excretion of sodium and potassium in urine of rats after peroral administration of 84.5 uM/Kg of drug; assay type: ADME, organism-based; conditions: in vivo, po
[16] = system: Rattus norvegicus; assay: Total electrolytic excretion of chlorine in urine of rats after peroral administration of 97.1 uM/Kg of drug; assay type: ADME, organism-based; conditions: in vivo, po
[17] = system: Rattus norvegicus; assay: Ratio of Total electrolytic excretion of sodium and potassium in urine of rats after peroral administration of 32.4 uM/Kg of drug; assay type: ADME, organism-based; conditions: in vivo, po
[18] = system: Rattus norvegicus; assay: Ratio of Total electrolytic excretion of sodium and potassium in urine of rats after intravenous administration of 23.5 uM/Kg of drug; assay type: ADME, organism-based; conditions: in vivo
[19] = system: Rattus norvegicus; assay: Total electrolytic excretion of potassium in urine of rats after peroral administration of 97.1 uM/Kg of drug; assay type: ADME, organism-based; conditions: in vivo, po
[20] = system: Rattus norvegicus; assay: Ratio of Total electrolytic excretion of sodium and potassium in urine of rats after peroral administration of 324 uM/Kg of drug; assay type: ADME, organism-based; conditions: in vivo, po
[21] = system: Rattus norvegicus; assay: Total electrolytic excretion of chlorine in urine of rats after peroral administration of 32.4 uM/Kg of drug; assay type: ADME, organism-based; conditions: in vivo, po
[22] = system: Rattus norvegicus; assay: Total electrolytic excretion of sodium in urine of rats after peroral administration of 32.4 uM/Kg of drug; assay type: ADME, organism-based; conditions: in vivo, po
[23] = system: Rattus norvegicus; assay: Tested for the diuretic activity by measuring the urinary volume after peroral administering 324 uM/Kg of drug in rats; assay type: ADME, organism-based, Urine; conditions: in vivo, po
[24] = system: Rattus norvegicus; assay: Total electrolytic excretion of potassium in urine of rats after peroral administration of 324 uM/Kg of drug; assay type: ADME, organism-based; conditions: in vivo, po
[25] = system: Rattus norvegicus; assay: Total electrolytic excretion of sodium in urine of rats after peroral administration of 324 uM/Kg of drug; assay type: ADME, organism-based; conditions: in vivo, po
[26] = system: Rattus norvegicus; assay: Total electrolytic excretion of sodium in urine of rats after peroral administration of 97.1 uM/Kg of drug; assay type: ADME, organism-based; conditions: in vivo, po
[27] = system: Rattus norvegicus; assay: Ratio of Total electrolytic excretion of sodium and potassium in urine of rats after intravenous administration of 70.6 uM/Kg of drug; assay type: ADME, organism-based; conditions: in vivo
[28] = system: Rattus norvegicus; assay: Tested for the diuretic activity by measuring the urinary volume after peroral administering 97.1 uM/Kg of drug in rats; assay type: ADME, organism-based, Urine; conditions: in vivo, po
[29] = system: Rattus norvegicus; assay: Total electrolytic excretion of potassium in urine of rats after peroral administration of 32.4 uM/Kg of drug; assay type: ADME, organism-based; conditions: in vivo, po
[30] = system: Rattus norvegicus; assay: Ratio of Total electrolytic excretion of sodium and potassium in urine of rats after peroral administration of 97.1 uM/Kg of drug; assay type: ADME, organism-based; conditions: in vivo, po
[31] = system: Rattus norvegicus; assay: Total electrolytic excretion of chlorine in urine of rats after peroral administration of 324 uM/Kg of drug; assay type: ADME, organism-based; conditions: in vivo, po
[32] = system: Rattus norvegicus; assay: Tested for the diuretic activity by measuring the urinary volume after peroral administering 32.4 uM/Kg of drug in rats; assay type: ADME, organism-based, Urine; conditions: in vivo, po

Ratio [1]: 3.7 | Excretion Na+ [2]: 1.33 m equiv | Excretion K+ [3]: 0.29 m equiv | V [4]: 3.7 mL | Excretion K+ [5]: 0.35 m equiv | Excretion Cl- [6]: 0.77 m equiv | Excretion Na+ [7]: 0.76 m equiv | Excretion Cl- [8]: 1.18 m equiv | Excretion K+ [9]: 0.21 m equiv | Excretion Na+ [10]: 1.13 m equiv | Excretion Cl- [11]: 1.46 m equiv | V [12]: 6.5 mL | Ratio [13]: 4 | V [14]: 7.4 mL | Ratio [15]: 3.8
Structure (SMILES): C1CCC(/N=C(/NC2CCCCC2)N2CCCCC2)CC1

Excretion Cl- [16]: 1.14 m equiv | Ratio [17]: 2.4 | Ratio [18]: 16.4 | Excretion K+ [19]: 0.31 m equiv | Ratio [20]: 5.4 | Excretion Cl- [21]: 0.86 m equiv | Excretion Na+ [22]: 0.77 m equiv | V [23]: 13.8 mL | Excretion K+ [24]: 0.42 m equiv | Excretion Na+ [25]: 2.25 m equiv | Excretion Na+ [26]: 1.13 m equiv | Ratio [27]: 29.5 | V [28]: 7.3 mL | Excretion K+ [29]: 0.33 m equiv | Ratio [30]: 3.6 | Excretion Cl- [31]: 1.94 m equiv | V [32]: 5.4 mL
Structure (SMILES): c1ccc(C/N=C(/NCc2ccccc2)N2CCOCC2)cc1
